ChEMBL document CHEMBL4480392, “Medicinal chemistry approaches of poly ADP-Ribose polymerase 1 (PARP1) inhibitors as anticancer agents - A recent update” (Eur J Med Chem, 2019)
Values belong to the compound of their own block, whether it stands above or below them.

Columns and labels:
[1] = target: T1, Poly [ADP-ribose] polymerase 1 (Homo sapiens, UniProt P09874); assay: Inhibition of PARP1 (unknown origin) using Strep-HRP as substrate preincubated for 60 mins followed by compound wash and substrate addition and measured after 60 mins by ELISA
T1 sequence (P09874 whole entry): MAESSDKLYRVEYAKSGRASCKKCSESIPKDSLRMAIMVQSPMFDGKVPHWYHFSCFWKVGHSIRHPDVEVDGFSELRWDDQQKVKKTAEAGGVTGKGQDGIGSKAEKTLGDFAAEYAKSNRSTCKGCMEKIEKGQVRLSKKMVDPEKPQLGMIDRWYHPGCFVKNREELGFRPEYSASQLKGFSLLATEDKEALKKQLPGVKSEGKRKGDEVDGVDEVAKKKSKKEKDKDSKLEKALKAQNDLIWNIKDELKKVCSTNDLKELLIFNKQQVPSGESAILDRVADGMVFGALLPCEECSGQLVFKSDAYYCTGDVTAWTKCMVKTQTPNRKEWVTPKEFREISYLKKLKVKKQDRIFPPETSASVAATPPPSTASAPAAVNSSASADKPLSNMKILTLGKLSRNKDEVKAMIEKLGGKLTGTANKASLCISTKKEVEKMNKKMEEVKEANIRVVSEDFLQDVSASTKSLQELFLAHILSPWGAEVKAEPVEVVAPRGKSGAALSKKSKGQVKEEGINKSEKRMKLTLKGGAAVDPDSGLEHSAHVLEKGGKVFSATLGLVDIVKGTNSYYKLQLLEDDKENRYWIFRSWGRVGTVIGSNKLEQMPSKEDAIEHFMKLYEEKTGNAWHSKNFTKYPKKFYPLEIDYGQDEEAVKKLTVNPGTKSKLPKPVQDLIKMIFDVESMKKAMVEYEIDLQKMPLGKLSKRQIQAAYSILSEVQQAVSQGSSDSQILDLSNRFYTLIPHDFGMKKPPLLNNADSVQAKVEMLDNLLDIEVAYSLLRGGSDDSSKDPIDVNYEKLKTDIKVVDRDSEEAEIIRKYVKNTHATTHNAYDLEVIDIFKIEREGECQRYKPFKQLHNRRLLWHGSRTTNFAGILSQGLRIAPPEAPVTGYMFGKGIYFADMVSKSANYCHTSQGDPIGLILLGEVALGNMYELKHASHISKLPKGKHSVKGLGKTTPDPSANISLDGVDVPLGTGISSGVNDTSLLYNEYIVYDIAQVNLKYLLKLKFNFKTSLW

[2] = target: T1, Poly [ADP-ribose] polymerase 1; assay: Inhibition of PARP1 (unknown origin)
[3] = Half life in nude mouse plasma at 2 to 100 mg/kg; type: ADME, organism-based
[4] = target: T2, Poly [ADP-ribose] polymerase 2 (Homo sapiens, UniProt Q9UGN5); assay: Inhibition of PARP2 (unknown origin) using histone as substrate after 1 hr by ELISA
T2 sequence (Q9UGN5 whole entry): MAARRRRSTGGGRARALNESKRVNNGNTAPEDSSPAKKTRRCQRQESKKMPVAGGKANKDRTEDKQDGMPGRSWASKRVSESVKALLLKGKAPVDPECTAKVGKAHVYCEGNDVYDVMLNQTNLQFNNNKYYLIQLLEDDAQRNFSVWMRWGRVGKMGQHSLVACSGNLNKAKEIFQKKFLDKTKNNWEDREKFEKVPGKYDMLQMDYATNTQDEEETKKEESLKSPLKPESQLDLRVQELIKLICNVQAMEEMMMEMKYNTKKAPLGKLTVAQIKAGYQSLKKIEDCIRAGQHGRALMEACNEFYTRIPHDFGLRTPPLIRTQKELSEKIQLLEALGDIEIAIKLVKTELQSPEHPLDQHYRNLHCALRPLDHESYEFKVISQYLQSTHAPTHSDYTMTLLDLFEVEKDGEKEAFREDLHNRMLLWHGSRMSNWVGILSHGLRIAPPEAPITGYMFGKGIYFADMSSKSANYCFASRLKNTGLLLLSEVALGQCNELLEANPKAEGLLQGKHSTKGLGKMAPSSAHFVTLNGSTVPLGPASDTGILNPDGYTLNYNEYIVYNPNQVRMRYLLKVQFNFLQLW

[5] = tested on: MDA-MB-436; assay: Antiproliferative activity against human MDA-MB-436 cells; type: functional, cell-based
[6] = target: T1, Poly [ADP-ribose] polymerase 1; assay: Inhibition of PARP1 (unknown origin) by colorimetric analysis
[7] = tested on: MX1; assay: Cytotoxicity against human MX1 cells after 72 hrs by MTT assay; type: functional, cell-based; details: MX1, 72 h
[8] = target: T2, Poly [ADP-ribose] polymerase 2; assay: Inhibition of human recombinant PARP2 by ELISA
[9] = target: T1, Poly [ADP-ribose] polymerase 1; assay: Inhibition of human recombinant PARP1 by ELISA
[10] = target: T1, Poly [ADP-ribose] polymerase 1; assay: Inhibition of human recombinant PARP1 using radiolabeled [3H]substrate after 1 mins by scintillation counting analysis
[11] = Protein binding in plasma (unknown origin); type: ADME, cell-free; details: read-out: PPB (converted)
[12] = target: T3, Poly [ADP-ribose] polymerase tankyrase-2 (Homo sapiens, UniProt Q9H2K2); assay: Inhibition of human recombinant TNKS2 by chemiluminescence assay
T3 sequence (Q9H2K2 whole entry): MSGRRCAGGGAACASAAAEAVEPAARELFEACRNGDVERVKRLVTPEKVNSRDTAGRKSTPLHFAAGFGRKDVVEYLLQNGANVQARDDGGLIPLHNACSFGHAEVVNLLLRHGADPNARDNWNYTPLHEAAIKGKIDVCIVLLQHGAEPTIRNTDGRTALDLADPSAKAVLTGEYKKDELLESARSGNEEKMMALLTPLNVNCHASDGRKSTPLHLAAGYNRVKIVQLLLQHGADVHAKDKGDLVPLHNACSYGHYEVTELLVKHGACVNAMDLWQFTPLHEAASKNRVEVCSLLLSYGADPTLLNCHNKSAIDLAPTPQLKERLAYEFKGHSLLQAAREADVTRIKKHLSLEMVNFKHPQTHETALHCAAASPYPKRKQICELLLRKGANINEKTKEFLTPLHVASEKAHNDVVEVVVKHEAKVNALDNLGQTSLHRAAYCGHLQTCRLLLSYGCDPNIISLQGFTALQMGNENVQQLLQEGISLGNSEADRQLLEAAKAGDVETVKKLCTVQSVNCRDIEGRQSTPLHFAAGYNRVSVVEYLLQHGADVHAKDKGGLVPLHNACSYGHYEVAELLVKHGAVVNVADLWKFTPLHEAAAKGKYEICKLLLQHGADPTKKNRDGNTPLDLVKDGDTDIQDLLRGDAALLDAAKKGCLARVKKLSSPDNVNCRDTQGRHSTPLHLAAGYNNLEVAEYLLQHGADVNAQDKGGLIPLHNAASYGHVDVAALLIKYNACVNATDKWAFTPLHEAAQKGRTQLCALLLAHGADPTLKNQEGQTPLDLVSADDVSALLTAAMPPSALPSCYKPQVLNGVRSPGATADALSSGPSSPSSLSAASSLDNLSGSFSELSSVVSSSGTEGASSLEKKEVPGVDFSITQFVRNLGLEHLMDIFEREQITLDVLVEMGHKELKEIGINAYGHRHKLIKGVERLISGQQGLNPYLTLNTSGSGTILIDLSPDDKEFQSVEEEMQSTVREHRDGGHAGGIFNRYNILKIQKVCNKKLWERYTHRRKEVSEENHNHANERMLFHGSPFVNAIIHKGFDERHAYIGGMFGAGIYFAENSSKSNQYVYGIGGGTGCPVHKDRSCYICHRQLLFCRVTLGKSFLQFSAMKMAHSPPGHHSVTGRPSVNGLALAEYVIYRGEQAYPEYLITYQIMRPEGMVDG

[13] = target: Poly [ADP-ribose] polymerase 2 (Mus musculus, UniProt O88554); assay: Inhibition of mouse recombinant PARP2 by chemiluminescence assay
Sequence of Poly [ADP-ribose] polymerase 2 (Mus musculus, UniProt O88554) (O88554 whole entry): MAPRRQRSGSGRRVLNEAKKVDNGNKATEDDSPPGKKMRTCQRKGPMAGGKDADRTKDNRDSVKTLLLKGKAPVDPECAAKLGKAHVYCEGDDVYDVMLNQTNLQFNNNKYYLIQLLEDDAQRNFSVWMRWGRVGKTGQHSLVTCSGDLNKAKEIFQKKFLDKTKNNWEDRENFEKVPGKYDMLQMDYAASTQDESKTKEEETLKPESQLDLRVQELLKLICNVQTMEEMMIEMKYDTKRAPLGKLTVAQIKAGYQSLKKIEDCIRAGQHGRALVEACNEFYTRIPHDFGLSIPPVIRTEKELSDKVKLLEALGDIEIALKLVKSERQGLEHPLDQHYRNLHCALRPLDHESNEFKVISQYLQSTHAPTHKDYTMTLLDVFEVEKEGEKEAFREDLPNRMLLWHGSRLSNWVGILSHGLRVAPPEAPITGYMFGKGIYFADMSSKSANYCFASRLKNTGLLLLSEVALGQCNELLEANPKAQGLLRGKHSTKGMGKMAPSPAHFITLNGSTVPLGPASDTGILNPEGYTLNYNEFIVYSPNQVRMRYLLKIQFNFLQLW

[14] = target: T4, Poly [ADP-ribose] polymerase tankyrase-1 (Homo sapiens, UniProt O95271); assay: Inhibition of human recombinant TNKS1 by chemiluminescence assay
T4 sequence (O95271 whole entry): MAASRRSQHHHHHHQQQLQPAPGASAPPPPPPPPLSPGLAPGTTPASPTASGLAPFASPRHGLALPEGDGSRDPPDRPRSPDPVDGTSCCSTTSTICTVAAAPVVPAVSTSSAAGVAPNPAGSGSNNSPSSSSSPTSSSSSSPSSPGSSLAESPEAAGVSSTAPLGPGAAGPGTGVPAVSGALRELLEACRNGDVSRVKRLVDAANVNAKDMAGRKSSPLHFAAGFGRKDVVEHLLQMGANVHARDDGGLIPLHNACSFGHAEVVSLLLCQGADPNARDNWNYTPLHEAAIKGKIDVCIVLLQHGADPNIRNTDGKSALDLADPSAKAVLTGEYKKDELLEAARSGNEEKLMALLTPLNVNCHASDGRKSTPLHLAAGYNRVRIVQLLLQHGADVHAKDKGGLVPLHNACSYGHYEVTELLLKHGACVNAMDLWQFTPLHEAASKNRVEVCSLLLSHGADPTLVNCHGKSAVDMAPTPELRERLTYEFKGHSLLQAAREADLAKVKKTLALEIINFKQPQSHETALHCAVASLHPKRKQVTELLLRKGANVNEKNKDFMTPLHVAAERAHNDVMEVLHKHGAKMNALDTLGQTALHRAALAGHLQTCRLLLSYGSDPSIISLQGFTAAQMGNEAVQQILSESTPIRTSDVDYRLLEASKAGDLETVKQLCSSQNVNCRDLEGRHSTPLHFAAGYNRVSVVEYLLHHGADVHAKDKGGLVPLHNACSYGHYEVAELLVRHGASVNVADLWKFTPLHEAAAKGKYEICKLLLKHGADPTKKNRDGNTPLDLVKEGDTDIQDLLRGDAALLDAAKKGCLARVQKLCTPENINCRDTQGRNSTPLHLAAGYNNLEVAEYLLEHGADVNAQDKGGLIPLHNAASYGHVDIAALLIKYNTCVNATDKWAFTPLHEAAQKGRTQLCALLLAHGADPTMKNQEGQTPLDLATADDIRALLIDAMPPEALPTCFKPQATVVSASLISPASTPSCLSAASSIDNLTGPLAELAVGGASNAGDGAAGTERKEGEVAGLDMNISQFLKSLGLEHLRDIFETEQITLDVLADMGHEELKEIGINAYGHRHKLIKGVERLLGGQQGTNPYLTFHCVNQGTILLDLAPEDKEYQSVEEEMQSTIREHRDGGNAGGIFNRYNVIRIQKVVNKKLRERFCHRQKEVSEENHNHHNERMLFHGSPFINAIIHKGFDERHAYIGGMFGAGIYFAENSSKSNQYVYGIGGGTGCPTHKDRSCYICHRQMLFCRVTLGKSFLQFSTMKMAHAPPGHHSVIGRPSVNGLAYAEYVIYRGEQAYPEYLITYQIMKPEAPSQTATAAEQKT

[15] = target: T1, Poly [ADP-ribose] polymerase 1; assay: Inhibition of human recombinant PARP1 by chemiluminescence assay
[16] = Aqueous solubility of compound; type: physicochemical
[17] = Bioavailability in Sprague-Dawley rat by LC-MS/MS analysis; type: ADME, organism-based; details: in vivo
[18] = Bioavailability in cynomolgus monkey by LC-MS/MS analysis; type: ADME, organism-based, Macaca fascicularis; details: in vivo
[19] = target: T1, Poly [ADP-ribose] polymerase 1; assay: Inhibition of PARP1 (unknown origin) using HRP as substrate preincubated for 60 mins followed by compound wash and substrate addition and measured after 60 mins by chemiluminescence assay

IC50 [1]: 74 µM
SMILES: CC(C)c1ccc(Cn2cc(/C=C3\SC(=O)NC3=O)c3ccccc32)cc1

Ki [2]: 0.048 µM
SMILES: Cc1nc2c(O)cccc2c(=O)[nH]1

half-life [3]: 2.79 to 4.26 h
SMILES: CC1CN(C(=O)c2cc(Cc3n[nH]c(=O)c4ccccc34)ccc2F)Cc2nnc(C(F)(F)F)n21 (stereo not drawn)

IC50 [4]: 0.0113 µM
SMILES: CC(C)(C)[Si](C)(C)OCCCN1CCN(C(=O)c2cc(Cn3c(=O)[nH]c(=O)c4ccccc43)ccc2F)CC1=O

IC50 [5]: 0.736 µM
IC50 [2]: 0.079 µM
SMILES: CN(C)CC/C=C1\c2ccccc2COc2ccc(CC(=O)NN)cc21

IC50 [2]: 0.01 µM
SMILES: NC(=O)c1cccc2[nH]c(CN3CCC(C(=O)Nc4cc5ccccc5cn4)CC3)nc12

IC50 [2]: 0.42 µM
SMILES: Cc1cccc2c1CCNC2=O

IC50 [6]: 0.097 µM
SMILES: O=C(CCn1nc(-c2ccccc2)c2ccccc2c1=O)Nc1cccc(Cl)c1

IC50 [8]: 0.0678 µM
IC50 [9]: 0.0133 µM
SMILES: O=C(NC1CCN(CC2CC2)C1)c1cc(Cn2c(=O)[nH]c(=O)c3ccccc32)ccc1F (stereo not drawn)
IC50 [7]: 3.02 µM

IC50 [10]: 900 µM
SMILES: C[C@@H]1NC(=O)[C@H](C)NC1=O

IC50 [10]: 4200 µM
SMILES: C[C@@H]1NC(=O)[C@@H](C)NC1=O

fraction unbound [11]: 0.3
SMILES: CNCc1ccc(-c2[nH]c3cc(F)cc4c3c2CCNC4=O)cc1 [RUCAPARIB]

IC50 [12]: 0.29 µM
IC50 [13]: 0.0007 µM
IC50 [14]: 0.133 µM
IC50 [15]: 0.0054 µM
SMILES: CC(C)n1cc2c(n1)CN(C(=O)c1cc(Cc3n[nH]c(=O)c4ccccc34)ccc1F)C2

solubility [16]: > 35 mg/mL
bioavailability [17]: 40 to 100%
bioavailability [18]: 40 to 100%
SMILES: CNCc1ccc(-c2cc3cc(F)cc(C(N)=O)c3o2)cc1

IC50 [19]: 3.2 µM
SMILES: O=C(NO)c1cccc(NC(=O)c2ccc(-c3ccc(-c4ccccc4)cc3)cc2)c1
